Biological target: T1, SIRT1 (Homo sapiens, UniProt Q96EB6)
T1 sequence (Q96EB6 1-747): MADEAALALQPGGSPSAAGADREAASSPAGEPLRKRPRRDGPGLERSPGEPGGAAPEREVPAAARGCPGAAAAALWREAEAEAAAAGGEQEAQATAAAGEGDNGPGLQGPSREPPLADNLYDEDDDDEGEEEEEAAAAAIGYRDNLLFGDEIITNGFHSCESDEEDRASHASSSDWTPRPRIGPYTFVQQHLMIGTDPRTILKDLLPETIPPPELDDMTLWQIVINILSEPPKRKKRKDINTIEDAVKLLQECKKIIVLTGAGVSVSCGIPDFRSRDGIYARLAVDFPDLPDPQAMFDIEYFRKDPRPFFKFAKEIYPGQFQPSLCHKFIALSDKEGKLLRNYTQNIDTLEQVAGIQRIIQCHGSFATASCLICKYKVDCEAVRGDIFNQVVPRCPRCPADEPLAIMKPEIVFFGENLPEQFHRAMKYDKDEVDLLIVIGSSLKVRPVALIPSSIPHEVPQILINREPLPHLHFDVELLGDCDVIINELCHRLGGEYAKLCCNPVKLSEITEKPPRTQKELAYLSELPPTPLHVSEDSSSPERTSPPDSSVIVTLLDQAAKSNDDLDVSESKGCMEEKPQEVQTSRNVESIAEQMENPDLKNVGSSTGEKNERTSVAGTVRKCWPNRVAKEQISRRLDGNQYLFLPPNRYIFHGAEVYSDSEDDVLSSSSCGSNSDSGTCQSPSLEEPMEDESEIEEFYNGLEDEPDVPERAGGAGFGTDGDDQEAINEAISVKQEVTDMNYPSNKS
Experiment: TAMRA based mass spectrometry assay of SIRT1 activity
Assay type: biochemical
Details: TAMRA assay; for TAMRA EC1.5 (μM): concentration giving 150% activation of SIRT1; for Emax: percent maximum fold activation, read-out: TAMRA % Fold Act
Summary of the method: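 Deacetylation of a biotinylated, TAMRA-tagged p53-based peptide (0.5 μM) by 10 nM His-tagged SIRT1 with 120 μM βNAD+, 25 °C for 25 min, pH 8 Tris-acetate buffer, across a compound concentration range. Quenched by formic acid and read by mass spec as product peptide or OAADPR; activity relative to DMSO reactions, nicotinamide defining maximal inhibition.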

Compound | TAMRA EC1.5 (μM) | Emax
O=C(Nc1cnc2ccc(-c3ccccc3Cl)nn12)c1nccs1 [Compound 294] | B (EC1.5 1-25 μM) | < 350%
CC1(COc2cccc(NC(=O)c3cnc4ccc(-c5ccccc5C(F)(F)F)nn34)n2)COC1 [Compound 295] | A (EC1.5<1 μM) | ≥ 350%
O=C(Nc1cnc2ccc(-c3ccccc3F)nn12)c1cscn1 [Compound 298] | B (EC1.5 1-25 μM) | < 350%
Cc1nc(C(=O)Nc2cnc3ccc(-c4ccccc4F)nn23)cs1 [Compound 299] | B (EC1.5 1-25 μM) | < 350%
Cc1nc(C(=O)Nc2cnc3ccc(-c4ccccc4F)nn23)c(C)s1 [Compound 300] | A (EC1.5<1 μM) | < 350%
O=C(Nc1cnc2ccc(-c3ccccc3F)nn12)c1cccc(N2CCOCC2)n1 [Compound 301] | A (EC1.5<1 μM) | ≥ 350%
O=C(Nc1cnc2ccc(-c3ccccc3F)nn12)c1cccc(N2CCC2)n1 [Compound 302] | A (EC1.5<1 μM) | ≥ 350%
Cc1cnc(C(=O)Nc2cnc3ccc(-c4ccccc4F)nn23)s1 [Compound 304] | B (EC1.5 1-25 μM) | < 350%
Cc1cnc(C(=O)Nc2cnc3ccc(-c4ccccc4Cl)nn23)s1 [Compound 306] | B (EC1.5 1-25 μM) | ≥ 350%
O=C(Nc1cnc2ccc(-c3ccccc3Cl)nn12)c1cccc(N2CCOCC2)n1 [Compound 307] | A (EC1.5<1 μM) | ≥ 350%
Cc1cc(OCC(F)(F)F)nc(NC(=O)c2cnc3ccc(-c4ccccc4C(F)(F)F)nn23)n1 [Compound 310] | A (EC1.5<1 μM) | ≥ 350%
O=C(Nc1cnc2ccc(-c3ccccc3OC(F)(F)F)nn12)c1ccccn1 [Compound 312] | A (EC1.5<1 μM) | ≥ 350%
O=C(Nc1cnc2ccc(-c3ccccc3OC(F)(F)F)nn12)c1cnccn1 [Compound 313] | A (EC1.5<1 μM) | ≥ 350%
O=C(Nc1cnc2ccc(-c3ccccc3OC(F)(F)F)nn12)c1cscn1 [Compound 316] | A (EC1.5<1 μM) | ≥ 350%
Cc1nc(C(=O)Nc2cnc3ccc(-c4ccccc4OC(F)(F)F)nn23)c(C)s1 [Compound 318] | A (EC1.5<1 μM) | ≥ 350%
O=C(Nc1cnc2ccc(-c3ccccc3OC(F)(F)F)nn12)c1nccs1 [Compound 319] | A (EC1.5<1 μM) | ≥ 350%
O=C(Nc1cnc2ccc(-c3ccccc3OC(F)(F)F)nn12)c1cccc(N2CCC2)n1 [Compound 322] | A (EC1.5<1 μM) | ≥ 350%
O=C(Nc1ccccn1)c1c(O)nc2ccc(-c3ccccc3C(F)(F)F)nn12 [Compound 324] | B (EC1.5 1-25 μM) | < 350%
O=C(Nc1ccnc(OCC(F)(F)F)n1)c1cnc2ccc(-c3ccccc3C(F)(F)F)nn12 [Compound 325] | B (EC1.5 1-25 μM) | < 350%
N#Cc1ccccc1-c1ccc2ncc(NC(=O)c3ccccn3)n2n1 [Compound 328] | A (EC1.5<1 μM) | ≥ 350%
N#Cc1ccccc1-c1ccc2ncc(NC(=O)c3ccncn3)n2n1 [Compound 330] | B (EC1.5 1-25 μM) | < 350%
N#Cc1ccccc1-c1ccc2ncc(NC(=O)c3ncccn3)n2n1 [Compound 331] | B (EC1.5 1-25 μM) | ≥ 350%
Cc1nc(C(=O)Nc2cnc3ccc(-c4ccccc4C#N)nn23)cs1 [Compound 333] | B (EC1.5 1-25 μM) | ≥ 350%
Cc1nc(C(=O)Nc2cnc3ccc(-c4ccccc4C#N)nn23)c(C)s1 [Compound 334] | A (EC1.5<1 μM) | ≥ 350%
Cc1cnc(C(=O)Nc2cnc3ccc(-c4ccccc4C#N)nn23)s1 [Compound 336] | B (EC1.5 1-25 μM) | ≥ 350%
N#Cc1ccccc1-c1ccc2ncc(NC(=O)c3cccc(N4CCOCC4)n3)n2n1 [Compound 337] | A (EC1.5<1 μM) | ≥ 350%
Cc1cc(NC(=O)c2c(O)nc3ccc(-c4ccccc4C(F)(F)F)nn23)cc(C)n1 [Compound 341] | C (EC1.5>25 μM) | < 350%

Compound | TAMRA EC1.5 (μM) | Emax
O=C(Nc1ncccn1)c1c(O)nc2ccc(-c3ccccc3C(F)(F)F)nn12 [Compound 342] | C (EC1.5>25 μM) | 
Cc1cccc(NC(=O)c2c(O)nc3ccc(-c4ccccc4C(F)(F)F)nn23)n1 [Compound 343] | C (EC1.5>25 μM) | < 350%
O=C(Nc1cccc(OCC(O)CO)n1)c1c(O)nc2ccc(-c3ccccc3C(F)(F)F)nn12 (stereo not drawn) [Compound 344] | B (EC1.5 1-25 μM) | < 350%
O=C(Nc1cncc(OCC(O)CO)n1)c1c(O)nc2ccc(-c3ccccc3C(F)(F)F)nn12 (stereo not drawn) [Compound 345] | B (EC1.5 1-25 μM) | ≥ 350%
Cc1nc2ccc(-c3ccccc3Cl)nn2c1NC(=O)c1cnccn1 [Compound 347] | C (EC1.5>25 μM) | < 350%
Cc1nc2ccc(-c3ccccc3Cl)nn2c1NC(=O)c1ncccn1 [Compound 349] | C (EC1.5>25 μM) | < 350%
Cc1nc2ccc(-c3ccccc3Cl)nn2c1NC(=O)c1cscn1 [Compound 350] | C (EC1.5>25 μM) | < 350%
Cc1nc2ccc(-c3ccccc3Cl)nn2c1NC(=O)c1nccs1 [Compound 353] | B (EC1.5 1-25 μM) | < 350%
Cc1nc2ccc(-c3ccccc3Cl)nn2c1NC(=O)c1cccc(N2CCOCC2)n1 [Compound 355] | A (EC1.5<1 μM) | ≥ 350%
Cc1nc2ccc(-c3ccccc3Cl)nn2c1NC(=O)c1cccc(N2CCC2)n1 [Compound 356] | A (EC1.5<1 μM) | < 350%
O=C(Nc1ccncc1F)c1cnc2ccc(-c3ccccc3OC(F)(F)F)nn12 [Compound 359] | B (EC1.5 1-25 μM) | ≥ 350%
Cc1cc(NC(=O)c2cnc3c(C)c(C)c(-c4ccccc4C(F)(F)F)nn23)cc(C)n1 [Compound 361] | A (EC1.5<1 μM) | ≥ 350%
O=C(Nc1cnccn1)c1cnc2ccc(-c3ccccc3OC(F)(F)F)nn12 [Compound 362] | A (EC1.5<1 μM) | ≥ 350%
Cc1cc(C)nc(NC(=O)c2c(O)nc3ccc(-c4ccccc4C(F)(F)F)nn23)c1 [Compound 365] | B (EC1.5 1-25 μM) | < 350%
Cc1cc(NC(=O)c2c(O)nc3ccc(-c4ccccc4C(F)(F)F)nn23)ccn1 [Compound 366] | B (EC1.5 1-25 μM) | < 350%
O=C(Nc1cccc(N2CCOCC2)n1)c1cnc2ccc(-c3ccccc3OCC(O)CO)nn12 (stereo not drawn) [Compound 367, 6-(2-(2,3-dihydroxypropoxy)phenyl)-N-(6-morpholinopyridin-2-yl)imidazo[1,2-b]pyridazine-3-carboxamide] | A (EC1.5<1 μM) | ≥ 350%
O=C(Nc1ccccn1)c1cnc2ccc(-c3ccccc3OCC(O)CO)nn12 (stereo not drawn) [Compound 368] | B (EC1.5 1-25 μM) | ≥ 350%
Cc1cc(NC(=O)c2cnc3ccc(-c4ccccc4OCC(O)CO)nn23)ccn1 (stereo not drawn) [Compound 370] | B (EC1.5 1-25 μM) | ≥ 350%
Cc1cc(C)nc(NC(=O)c2cnc3ccc(-c4ccccc4OCC(O)CO)nn23)c1 (stereo not drawn) [Compound 371] | A (EC1.5<1 μM) | ≥ 350%
O=C(Nc1ccccn1)c1cnc2ccc(-c3cccc(OCC(O)CO)c3)nn12 (stereo not drawn) [Compound 373] | B (EC1.5 1-25 μM) | < 350%
Cc1cc(NC(=O)c2cnc3ccc(-c4cccc(OCC(O)CO)c4)nn23)ccn1 (stereo not drawn) [Compound 374] | B (EC1.5 1-25 μM) | < 350%
Cc1nc2ccc(-c3ccccc3C(F)(F)F)nn2c1NC(=O)c1cnccn1 [Compound 376] | B (EC1.5 1-25 μM) | < 350%
Cc1nc2ccc(-c3ccccc3C(F)(F)F)nn2c1NC(=O)c1ncccn1 [Compound 378] | B (EC1.5 1-25 μM) | ≥ 350%
Cc1nc(C(=O)Nc2c(C)nc3ccc(-c4ccccc4C(F)(F)F)nn23)c(C)s1 [Compound 379] | B (EC1.5 1-25 μM) | ≥ 350%
Cc1nc2ccc(-c3ccccc3C(F)(F)F)nn2c1NC(=O)c1cccc(N2CCOCC2)n1 [Compound 382] | A (EC1.5<1 μM) | ≥ 350%
Cc1nc2ccc(-c3ccccc3C(F)(F)F)nn2c1NC(=O)c1cccc(OCC(O)CO)n1 (stereo not drawn) [Compound 384] | B (EC1.5 1-25 μM) | < 350%
